# Experiments:
# [1] = target: T1, dopamine transporter (^3 H-dopamine uptake) (Rattus norvegicus, UniProt P23977); assay: In vitro inhibition of ^3 H-dopamine (^3 H-DA) uptake in striatal synaptosomes; assay type: biochemical, rat (male Wistar); details: ^3 H-DA 1 nM, 25 min at 37° C.
# T1 construct: Corpi striati from male Wistar rats (150-200 g) are homogenized; from tissue; host or cells: P2 synaptosomes of corpus striatum, male Wistar rats
# Excerpt: (§1) The compounds of the invention have also been tested for their ability to inhibit reuptake of dopamine(DA) noradrenalin(NA) and serotonin(5-HT) in synaptosomes.
# (§2) Specific neurotransmitter transporters/uptake sites on nerve terminals presumably function to terminate neuronal signaling by removing the neurotransmitters dopamine, noradrenaline and serotonin, respectively, from the synaptic cleft. The activity of the transporter integral proteins can be measured in vitro by synaptosomal uptake of ^3 H-dopamine, ^3 H-noradrenaline and ^3 H-serotonine, respectively.
# In vitro inhibition of ^3 H-dopamine (^3 H-DA) uptake in striatal synaptosomes
# (§3) Tissue preparations: Preparations are performed at 0°-4° C. unless otherwise indicated. Corpi striati from male Wistar rats (150-200 g) are homogenized for 5-10 sec in 100 volumes of ice-cold 0.32M sucrose containing 1 mM pargyline using an Ultra-Turrax homogenizer. Monoamine oxidase activity will be inhibited in the presence of pargyline. The homogenate is centrifuged at 1000×g for 10 min. The resulting supermatant is then centrifuged at 27,000×g for 50 min and the supernatant is discarded. The pellet (P2) is resuspended in oxygenated (equilibrated with an atmosphere of 96% O2 : 4% CO2 for at least 30 min) Krebs-Ringer incubation buffer (8000 ml per g of original tissue) at pH 7.2 containing 122 mM NaCl, 0.16 mM EDTA, 4.8 mM KCl, 12.7 mM Na2 HPO4, 3.0 mM NaH2 PO4, 1.2 mM MgSO4, 1 mM CaCl2, 10 mM glucose and 1 mM ascorbic acid.
# Assay: Aliquots of 4.0 ml tissue suspension are added to 100 μl of test solution and 100 μl of ^3 H-DA (1 nM, final concentration), mixed and incubated for 25 min at 37° C. Non-specific uptake is determined using benztropine (10 μM, final concentration). After incubation the samples are poured directly onto Whatman GF/C glass fibre filters under suction. […] The amount of radioactivity on the filters is determined by conventional liquid scintillation counting. Specific uptake is calculated as the difference between total uptake and non-specific uptake. […]
# [2] = target: T2, ^3 H-noradrenaline uptake (noradrenaline transporter) (Rattus norvegicus, UniProt Q63380); assay: In vitro inhibition of ^3 H-noradrenaline (^3 H-NA) uptake in hippocampal synaptosomes; assay type: biochemical, rat (male Wistar); details: ^3 H-NA 1 nM, 90 min at 37° C.
# T2 construct: Hippocampi from male Wistar rats (150-200 g) are homogenized; from tissue; host or cells: P2 synaptosomes of hippocampus, male Wistar rats
# Excerpt: as §1, §2
# In vitro inhibition of ^3 H-noradrenaline (^3 H-NA) uptake in hippocampal synaptosomes
# as §3, with “Tissue preparation:” for “Tissue preparations:”, “indicated. Hippocampi” for “indicated. Corpi striati”, “resulting supernatant” for “resulting supermatant”, “buffer (2000” for “buffer (8000”, “MgSO4, 0.97” for “MgSO4, 1”
# Assay: Aliquots of 4.0 ml tissue suspension are added to 100 μl of test solution and 100 μl of ^3 H-NA (1 nM, final concentration), mixed and incubated for 90 min at 37° C. Non-specific uptake is determined using desipramine (1 μM, final concentration). After incubation the samples are poured directly onto Whatman GF/C glass fibre filters under suction. […] The amount of radioactivity on the filters is determined by conventional liquid scintillation counting. Specific uptake is calculated as the difference between total uptake and non-specific uptake. […]
# [3] = system: MPTP-induced Parkinsonism in Marmoset Monkeys; assay: Antagonism of MTPT-induced Parkinsonism in Marmoset Monkeys; assay type: in vivo, common marmoset; details: MPTP-treated marmosets, oral gavage, 0.1 to 2.5 mg/kg; for locomotor activity: 10 h
# Excerpt: Antagonism of MTPT-induced Parkinsonism in Marmoset Monkeys
# Administration of MPTP (1-methyl-4-phenyl-1,2,3,6-tetrahydropyridine, hydrochloride) to monkeys induce a lesion of the dopaminergic system in the brain and gives rise to parkinsonian symptoms. By subsequent administration of test-compounds, the ability of the compounds to alleviate the parkinsonian signs can be tested.
# Common marmosets (weighing 350-400 g, aged 3-5 years and of either sex) were used in the study. Animals were housed alone under standard conditions at a temperature of […] and 50% relative humidity using a 12 hour light-dark cycle. Animals had free access to food and Water.
# Some months before locomotor or behavioural testing began, animals were treated with MPTP (1-methyl-4-phenyl-1,2,3,6-tetrahydropyridine, hydrochloride) dissolved in sterile 0.9% saline in doses of 2 mg/kg administered subcutaneously daily for 5 days or until a clear parkinsonian state developed. The cumulative doses administered ranged between 8-12 mg/kg. During MPTP treatment and throughout the following 2-3 weeks the animals were hand fed until they had recovered enough to be able to feed themselves.
# Test compounds was dissolved in 100% Tween 80 with warming to 40°-50° C. and then diluted with water. Test compounds was given by oral gavage in a volume of 2 ml/kg. In addition test compound vehicle was administered on each experimental day for comparison with drug treatments. Each animal was treated with vehicle or one of the three doses of test compound over the following weeks, with a one week period of recovery between treatments.
# Rating of disability: The disability of animals were scored as follows; alertness (normal 0, sleepy 2); reaction to stimuli (normal 0, reduced 1, slow 2, absent 3); checking movements (present 0, reduced 1, absent 2); attention and eye movements (normal 0, abnormal 1); posture (normal 0, abnormal trunk 1, abnormal limbs 1, abnormal tail 1, or grossly abnormal 4); balance/coordination (normal 0, impaired 1, unstable 2, spontaneous falls 3); vocalization (normal 0, reduced 1, absent 2).
# Measurement of locomotor activity: Locomotor activity was measured simultaneously for four individual animals each in a metal cage (50 w×60 l×70 h cm) with transparent plastic doors (50 w×70 h cm) similar to the home cages but fitted with eight horizontally orientated infrared photocells. […] Locomotor counts were measured as the number of light beam interuptions which occured as the animals moved about. These movement counts were accumulated in 30 minutes intervals and recorded for the 10 h duration of experimentation.
# Data analysis: The mean (±) s.e.m. was calculated for time courses and accumulated locomotor counts or behavioural disability scores for the different treatment groups.
# [4] = system: stereotyped behaviour of the rat; assay: Abnormal stereotyped behaviour (side effect profile); assay type: in vivo; parameters: key to Activity (high intensity stereotypy): +: only stereotyped sniffing; ++: stereotyped sniffing and episodic licking; +++: continuous licking and/or biting gnawing
# Excerpt: Side Effect Profile of the Compounds of the Present Invention
# The side effects of cocaine and the central stimulant amphetamine derivatives involve central excitement and stimulation in animals including primates and these effects can also be observed in humans. A serious side effect of cocaine and of the amphetamine derivatives includes also the ability to provoke toxic psychotic symptoms closely resembling the mental disease schizophrenia and these include halucinations, paranoia and abnormal bizarre stereotyped mental activity and stereotypy.
# The induction of stereotyped abnormal behavior in rodents thus also represents one of the most used animal models of schizophrenia in models for antipsychotic neuroleptic drugs (including haloperidol and chlorpromazine).
# The development of toxic abnormal stereotyped amphetamine syndrome as described below may predict a toxic central stimulant side effect of dopamine releasing compounds in humans.
# Classification of the Abnormal Stereotyped Behaviour
# In general, the abnormal stereotyped behaviour after administration of amphetamine and cocaine-like central stimulant drugs can be classified into "low" and "high" intensity scores of stereotyped behaviour. […]
# [5] = target: T3, dopamine transporter (Rattus norvegicus, UniProt P23977); details: background, in vitro, in words; cited from earlier work
# T3 construct: Corpus striatum from male Wistar rats (150-200 g) is homogenized; from tissue; host or cells: corpus striatum of male Wistar rats
# [6] = target: dopamine transporter (Mus musculus, UniProt Q61327); details: cited from earlier work
# [7] = target: T1, dopamine transporter (^3 H-dopamine uptake); details: background, in words; cited from earlier work
# Chain of dopamine transporter (Mus musculus, UniProt Q61327) (Q61327 whole entry): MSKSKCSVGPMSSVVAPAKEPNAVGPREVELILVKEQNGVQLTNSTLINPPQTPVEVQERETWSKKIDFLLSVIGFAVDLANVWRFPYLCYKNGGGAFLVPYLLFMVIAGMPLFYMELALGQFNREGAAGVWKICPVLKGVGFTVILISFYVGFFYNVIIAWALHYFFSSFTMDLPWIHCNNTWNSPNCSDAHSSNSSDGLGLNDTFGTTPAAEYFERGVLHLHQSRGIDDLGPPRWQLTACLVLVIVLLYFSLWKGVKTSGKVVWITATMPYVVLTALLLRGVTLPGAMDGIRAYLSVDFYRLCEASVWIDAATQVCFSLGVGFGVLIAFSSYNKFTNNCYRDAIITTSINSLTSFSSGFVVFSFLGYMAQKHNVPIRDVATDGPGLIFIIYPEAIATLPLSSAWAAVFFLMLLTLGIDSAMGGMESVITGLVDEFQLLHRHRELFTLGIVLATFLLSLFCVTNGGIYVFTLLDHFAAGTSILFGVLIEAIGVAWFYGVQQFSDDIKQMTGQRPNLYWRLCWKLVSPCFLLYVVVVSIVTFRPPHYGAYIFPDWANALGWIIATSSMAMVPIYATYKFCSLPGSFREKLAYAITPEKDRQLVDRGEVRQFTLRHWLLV
# T3 sequence (P23977 whole entry): as the sequence (Q61327 whole entry) above, with P21S, V57A, S194A, R600H, V619L counted along it
# T1 sequence (P23977 whole entry): as the sequence (Q61327 whole entry) above, with P21S, V57A, S194A, R600H, V619L counted along it
# T2 sequence (Q63380 1-617): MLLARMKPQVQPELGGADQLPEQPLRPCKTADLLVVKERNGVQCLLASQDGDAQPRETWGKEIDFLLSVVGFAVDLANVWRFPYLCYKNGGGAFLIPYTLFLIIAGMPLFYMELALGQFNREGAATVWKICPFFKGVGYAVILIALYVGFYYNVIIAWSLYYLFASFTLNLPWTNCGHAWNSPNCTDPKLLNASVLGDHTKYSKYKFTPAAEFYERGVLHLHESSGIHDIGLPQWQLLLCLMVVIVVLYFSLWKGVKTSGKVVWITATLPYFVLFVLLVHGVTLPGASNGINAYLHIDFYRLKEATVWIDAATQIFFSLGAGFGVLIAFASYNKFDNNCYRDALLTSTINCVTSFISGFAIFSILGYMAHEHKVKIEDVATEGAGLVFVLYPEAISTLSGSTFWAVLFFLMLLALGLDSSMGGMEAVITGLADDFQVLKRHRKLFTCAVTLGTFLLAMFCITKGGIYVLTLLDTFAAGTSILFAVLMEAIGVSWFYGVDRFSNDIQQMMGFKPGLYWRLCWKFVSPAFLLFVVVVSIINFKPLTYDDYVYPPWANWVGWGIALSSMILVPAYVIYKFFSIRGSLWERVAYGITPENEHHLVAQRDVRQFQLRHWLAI
structure (smiles),measurement,setting,value
"CON=C[C@@H]1[C@@H](c2ccc(Cl)c(Cl)c2)C[C@@H]2CC[C@H]1N2C (single isomer, unassigned) [(1R,2R,3S)-3-(3,4-dichlorophenyl)-tropane 2-O-methyl-aldoxime, syn-isomere]",IC50,[1],3.4 nM
same,IC50,[2],1.5 nM
"CON=C[C@@H]1[C@@H](c2ccc(Cl)c(Cl)c2)C[C@@H]2CC[C@H]1N2C [NS2214, (1R,2R,3S)-3-(3,4-dichlorophenyl)tropane-2O-methyl-aldoxime]",disability scores,[3],dose-dependent decrease in disability scores
same,locomotor activity,[3],dose dependent increase in locomotor activity
same,locomotor activity,[3]; listed as NS 2214,dose-dependent increase in locomotor activity
same,disability scores,[3]; listed as NS 2214,dose dependent decrease in disability scores
same,Activity (high intensity stereotypy),[4]; 15 mg/kg p.o.,+++
same,lowest dosis giving the activity indicated (stereotypy +++),[4]; p.o.,15 mg/kg
COC(=O)[C@H]1[C@@H](c2ccc(F)cc2)C[C@@H]2CC[C@H]1N2C [^3 H-WIN 35428],binding to the dopamine transporter,[5],binds selectively and with high affinity to the dopamine transporter complex
same,time to maximum of specific binding in the striatum,"[6]; in vivo, iv",30 min
COC(=O)[C@H]1[C@@H](OC(=O)c2ccccc2)C[C@@H]2CC[C@H]1N2C [cocaine],binding to the dopamine transporter,[5],binds to the dopamine transporter
same,inhibition of ^3 H-dopamine uptake,[7],inhibits ^3 H-dopamine uptake
same,prevention of specific binding of ^3 H-WIN 35428 in vivo,[6],partly or completely prevented

# Source: patent US5736556A, “Tropane-2-aldoxime derivatives as nevro transmitter reuptake inhibitors” (NeuroSearch A/S, priority 1994, dated 1998)
